According to US20030157186A1, “Method for maintaining or improving the synthesis of mucins” (priority 2003, published 2003):

Test system: HT29-MTX cells
Experiment: Fractional synthesis rate of mucoproteins in vitro (3H-threonine incorporation)
Assay type: cell-based, human
Settings: for mucoprotein FSR: day 7 to 21, mean±SEM, n=6
Description: The effect of threonine supplementation on the mucin synthesis rate was analyzed in vitro in HT29-MTX cells (human colonic carcinoma cells). HT29-MIX cells were grown in normal Dulbecco's modified minimum essential medium (DMEM) supplemented with 10% (v/v) heat-inactivated fetal bovine serum (Life Technologies) and containing 25 mM glucose, 1% non-essential amino acids (Life Technologies), 2 mM glutamine (AJINOMOTO CO), 85 mg/L penicillin-streptomycin, 50 mg/L gentamicin, and 1.5 mg/L Amphotericin B (Life Technologies). Cells were cultured at 37° C. in an atmosphere containing 10% CO2:90% air. The culture medium was changed daily. Experiments were carried out in T75 cm^2 culture flasks between passages 10 to 20. Studies were performed in the late post-confluent period (21 days after seeding), when all cells display a mucin-secreting phenotype. For the experiment, cells were grown in the normal DMEM until confluency (7 days after seeding). Then from day 7 to day 21 after seeding, several concentrations of threonine in the DMEM were tested, namely, 0.2 mM, 0.4 mM, 0.8 mM and 1.6 mM. At day 20, L-(3-^3H) threonine (30 microCi/Flask) was added to a fresh 10 mL culture medium. The incorporation of the radioactive tracer to newly synthesized mucoproteins was determined for the following 24 hour period. After 24 hours of metabolic labeling, the culture medium of cells was removed. […] An aliquot of each homogenate was removed for the measurement of the specific radioactivity of the intracellular free threonine considered as the precursor pool. […] Purified mucins were hydrolyzed with 6M HCl (24 h at 100° C.), and their amino acid composition was determined by HPLC. […] The fractional synthesis rate (FSR) of mucoproteins was calculated and expressed in percent/day (%/d): (FSR=(Specific radioactivity of mucoprotein bound threonine/Specific radioactivity of intracellular free threonine)*100). […] The mucoprotein FSR was determined for each of the varying concentrations of threonine (mM) in the culture medium of HT29-MTX cells as further shown in FIG. 1.

For `C[C@@H](O)[C@H](N)C(=O)O` [threonine], the “mucoprotein FSR” value (0.2 mM threonine in culture medium) was 26.4±1.4%, the “mucoprotein FSR” value (0.8 mM threonine in culture medium) was 37.3±1.4% and the “threonine concentration at which mucoprotein FSR reached a plateau” value (0.2 to 1.6 mM tested) was “about 0.8 mM”.
